The record followed here is BindingDB's records for doi:10.1021/jm00172a005 (Kissei Pharmaceutical, 1990).

Usually IC50 stands for the midpoint of a concentration-inhibition curve.

For experiment [1], the target named is Chymotrypsinogen A (Bos taurus) (UniProt P00766). The experiment is described as follows: Tested for inhibition of Chymotrypsinogen from bovine.
Experiment [2] has the same target. The description is as above. This is another data set of the same source.

In experiment [1], `CC(C)OC(=O)[C@H](O)[C@H](CC1CCCCC1)NC(=O)[C@H](Cc1c[nH]cn1)NC(=O)[C@@H](CC(=O)N1CCOCC1)Cc1cccc2ccccc12` [4-Cyclohexyl-2-hydroxy-3-[3-(1H-imidazol-4-yl)-2-(4-morpholin-4-yl-2-naphthalen-1-ylmethyl-4-oxo-butyrylamino)-propionylamino]-butyric acid isopropyl ester] came in with an IC50 greater than 100 µM.
`CC(C)CC(=O)N[C@H](C(=O)N[C@H](C(=O)N[C@@H](CC(C)C)[C@@H](O)CC(=O)N[C@@H](C)C(=O)N[C@@H](CC(C)C)[C@@H](O)CC(=O)O)C(C)C)C(C)C` [PEPSTATIN]: the IC50 in experiment [2] is greater than 100 µM.
